How the values were obtained:
[1] = target: PERK (Homo sapiens (Human), UniProt Q9NZJ5); experiment: PERK cellular assay (TR-FRET, HEK293-EGFP-eIF2α cells, tunicamycin-induced ER stress); assay type: cell-based; conditions: tunicamycin 2 hours, read-out: Cellular IC50 (μM) (EIF2a)
Protocol: Stable cell lines were created in HEK293 cells using lentiviral particles harboring an expression vector for GFP-eIF2α. Cells were selected using puromycin and enriched using fluorescence activated cell sorting against GFP. HEK293-EGFP-eIF2α cells were plated at 5000 cells/well in 384-well assay plates and incubated overnight at 37° C., 5% CO2. Inhibitor compounds were added to the wells by Echo acoustic dispensing and incubated for 30 minutes at 37° C., 5% CO2 prior to induction of ER stress by addition of tunicamycin to […] for 2 hours. Cells were lysed and TR-FRET was measured in an EnVision plate reader (PerkinElmer). FRET ratio data was normalized to signal from lysates treated with DMSO vehicle control and plotted as percent inhibition against 10-point; 3-fold dilution series of inhibitors. IC50 values were calculated using 4-parameter logistical fitting in XLFit.

[2] = target: EIF2AK3 (PERK) catalytic domain (amino acids 536-1116) (Homo sapiens (Human), UniProt Q9NZJ5); experiment: PERK in vitro activity assay (isolated), TR-FRET kinase assay; conditions: isolated PERK enzyme, 1.5 μM ATP, GFP-eIF2a substrate; read-out: Biochemical IC50
Source text: PERK In Vitro Activity Assay (Isolated):
In vitro Inhibition of PERK Enzyme Activity (isolated) Recombinant human EIF2AK2 (PKR) catalytic domain (amino acids 252-551), EIF2AK3 (PERK) catalytic domain (amino acids 536-1116), GFP-eIF2a substrate, and Terbium-labelled phospho-eIF2a antibody is obtained (Invitrogen, Carlsbad, CA).
Express and purify HIS-SUMO-GCN2 catalytic domain (amino acids 584-1019) from E. coli. Perform TR-FRET kinase assays in the absence or presence of inhibitors in a reaction buffer consisting of 50 mM HEPES, pH 7.5, 10 mM MgCb, 1.0 mM EGTA, and 0.01% Brij-35, and 100-200 nM GFP-eIF2a substrate. […] Add test compound, initiate the reaction by addition of enzyme, and incubate at room temperature for 45 minutes. Stop the reaction by addition of EDTA to a final concentration of 10 mM, add Terbium-labelled phospho-eIF2a antibody at a final concentration of 2 nM, and incubate for 90 minutes. Monitor the resulting fluorescence in an EnVison® Multilabel reader (PerkinElmer, Waltham, MA). Determine TR-FRET ratios and the resulting IC50 values using a 4-parameter nonlinear logistic equation as shown: Y=(A+((B−A)/(1+((C/x)[…])))) where, Y=% specific inhibition, A=Bottom of the curve, B=Top of the curve, C=absolute IC50 (concentration causing 50% inhibition), and D=hill slope.

EIF2AK3 (PERK) catalytic domain (amino acids 536-1116), sequence (Q9NZJ5 536-1116): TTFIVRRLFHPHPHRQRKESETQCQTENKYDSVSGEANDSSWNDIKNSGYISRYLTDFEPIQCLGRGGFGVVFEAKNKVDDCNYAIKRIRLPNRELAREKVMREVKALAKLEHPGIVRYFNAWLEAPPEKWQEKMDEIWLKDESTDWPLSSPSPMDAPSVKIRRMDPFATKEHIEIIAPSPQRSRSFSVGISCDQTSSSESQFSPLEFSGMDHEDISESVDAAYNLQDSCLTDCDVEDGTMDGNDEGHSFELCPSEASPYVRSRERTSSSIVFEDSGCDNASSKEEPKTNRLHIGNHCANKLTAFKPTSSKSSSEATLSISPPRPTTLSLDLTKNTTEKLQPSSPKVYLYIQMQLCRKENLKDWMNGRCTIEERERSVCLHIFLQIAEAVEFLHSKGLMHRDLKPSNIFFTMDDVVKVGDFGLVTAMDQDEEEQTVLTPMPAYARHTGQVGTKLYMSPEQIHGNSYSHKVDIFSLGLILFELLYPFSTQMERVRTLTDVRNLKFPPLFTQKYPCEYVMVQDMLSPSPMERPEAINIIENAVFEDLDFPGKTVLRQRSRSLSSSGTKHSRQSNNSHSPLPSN
PERK, sequence (Q9NZJ5 30-1116): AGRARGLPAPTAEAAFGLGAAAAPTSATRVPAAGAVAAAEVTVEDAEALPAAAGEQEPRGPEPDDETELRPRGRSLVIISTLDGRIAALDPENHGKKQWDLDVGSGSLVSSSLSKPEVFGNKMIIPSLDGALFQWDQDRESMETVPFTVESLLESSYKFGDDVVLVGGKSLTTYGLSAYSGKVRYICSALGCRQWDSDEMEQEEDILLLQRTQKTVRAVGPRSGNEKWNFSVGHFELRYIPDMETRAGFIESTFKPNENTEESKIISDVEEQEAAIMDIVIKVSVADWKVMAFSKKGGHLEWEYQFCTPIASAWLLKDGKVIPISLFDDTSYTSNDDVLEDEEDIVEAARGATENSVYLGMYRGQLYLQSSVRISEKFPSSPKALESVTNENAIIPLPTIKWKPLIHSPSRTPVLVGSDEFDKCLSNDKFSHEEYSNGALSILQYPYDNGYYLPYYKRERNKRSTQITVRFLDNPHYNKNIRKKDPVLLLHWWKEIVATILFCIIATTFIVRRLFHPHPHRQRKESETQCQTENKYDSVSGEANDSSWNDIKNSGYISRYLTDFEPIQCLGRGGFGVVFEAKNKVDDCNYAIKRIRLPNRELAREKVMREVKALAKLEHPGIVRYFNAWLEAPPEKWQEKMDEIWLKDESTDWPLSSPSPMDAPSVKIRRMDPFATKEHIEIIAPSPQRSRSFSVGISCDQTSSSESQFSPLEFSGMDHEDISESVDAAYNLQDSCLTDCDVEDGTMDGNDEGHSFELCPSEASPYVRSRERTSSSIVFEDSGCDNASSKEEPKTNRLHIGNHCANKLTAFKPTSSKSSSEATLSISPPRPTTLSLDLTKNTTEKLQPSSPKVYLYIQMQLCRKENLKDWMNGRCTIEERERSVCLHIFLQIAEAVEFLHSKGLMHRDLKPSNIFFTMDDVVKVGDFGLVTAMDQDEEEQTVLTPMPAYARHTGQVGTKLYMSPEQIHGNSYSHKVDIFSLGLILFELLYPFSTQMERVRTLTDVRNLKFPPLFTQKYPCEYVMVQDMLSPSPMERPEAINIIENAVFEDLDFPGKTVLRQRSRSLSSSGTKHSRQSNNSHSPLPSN

IC50 [1]	IC50 [2]	Structure (SMILES)
0.251 to 0.5 µM	1 to 25 nM	Cc1cc(NC(=O)C(O)c2ccccc2)ccc1-c1cnc(N)c(C(=O)NC(C)C)c1 (single isomer, unassigned) [Example 1, 2-amino-5-(4-(2-hydroxy-2-phenylacetamido)-2-methylphenyl)-N-isopropylnicotinamide]
0.101 to 0.25 µM	1 to 25 nM	Cc1cc(NC(=O)C(O)c2ccccc2)ccc1-c1cnc(N)c(C(=O)NC(C)C)c1 (single isomer, unassigned) [Example 2, 2-amino-5-(4-(2-hydroxy-2-phenylacetamido)-2-methylphenyl)-N-isopropylnicotinamide]
0.051 to 0.1 µM	1 to 25 nM	CNC(=O)c1cc(-c2ccc(NC(=O)C(O)c3cc(F)cc(F)c3)cc2C)cnc1N (single isomer, unassigned) [Example 10, 2-amino-5-(4-(2-(3,5-difluorophenyl)-2-hydroxyacetamido)-2-methylphenyl)-N-methylnicotinamide]
1 to 2 µM	501 to 1000 nM	CNC(=O)c1cc(-c2ccc(NC(=O)C(O)c3cc(F)cc(F)c3)cc2C)cnc1N (single isomer, unassigned) [Example 11, 2-amino-5-(4-(2-(3,5-difluorophenyl)-2-hydroxyacetamido)-2-methylphenyl)-N-methylnicotinamide]
0.026 to 0.05 µM	1 to 25 nM	CCNC(=O)c1cc(-c2ccc(NC(=O)C(O)c3cc(F)cc(F)c3)cc2C)cnc1N (single isomer, unassigned) [Example 12, 2-amino-5-(4-(2-(3,5-difluorophenyl)-2-hydroxyacetamido)-2-methylphenyl)-N-ethylnicotinamide]
0.501 to 1 µM	1 to 25 nM	CCNC(=O)c1cc(-c2ccc(NC(=O)C(O)c3cc(F)cc(F)c3)cc2C)cnc1N (single isomer, unassigned) [Example 13, 2-amino-5-(4-(2-(3,5-difluorophenyl)-2-hydroxyacetamido)-2-methylphenyl)-N-ethylnicotinamide]
0.101 to 0.25 µM	26 to 50 nM	Cc1cc(NC(=O)C(O)c2cc(F)cc(F)c2)ccc1-c1cnc(N)c(C(=O)NC(C)(C)C)c1 (single isomer, unassigned) [Example 16, 2-amino-N-(tert-butyl)-5-(4-(2-(3,5-difluorophenyl)-2-hydroxyacetamido)-2-methylphenyl) nicotinamide]
0.501 to 1 µM	251 to 500 nM	Cc1cc(NC(=O)C(O)c2cc(F)cc(F)c2)ccc1-c1cnc(N)c(C(=O)NC(C)(C)C)c1 (single isomer, unassigned) [Example 17, 2-amino-N-(tert-butyl)-5-(4-(2-(3,5-difluorophenyl)-2-hydroxyacetamido)-2-methylphenyl) nicotinamide]
0.026 to 0.05 µM	1 to 25 nM	Cc1cc(NC(=O)C(O)c2cc(F)cc(F)c2)ccc1-c1cnc(N)c(C(=O)NCC(F)(F)F)c1 (single isomer, unassigned) [Example 18, 2-amino-5-(4-(2-(3,5-difluorophenyl)-2-hydroxyacetamido)-2-methylphenyl)-N-(2,2,2-trifluoroethyl) nicotinamide]
0.101 to 0.25 µM	101 to 250 nM	Cc1cc(NC(=O)C(O)c2cc(F)cc(F)c2)ccc1-c1cnc(N)c(C(=O)NCC(F)(F)F)c1 (single isomer, unassigned) [Example 19, 2-amino-5-(4-(2-(3,5-difluorophenyl)-2-hydroxyacetamido)-2-methylphenyl)-N-(2,2,2-trifluoroethyl) nicotinamide]
0.001 to 0.025 µM	1 to 25 nM	CC(C)NC(=O)c1cc(-c2ccc(NC(=O)C(O)c3cc(F)cc(F)c3)cc2Cl)cnc1N (single isomer, unassigned) [Example 34]
0.101 to 0.25 µM	51 to 100 nM	CC(C)NC(=O)c1cc(-c2ccc(NC(=O)C(O)c3cc(F)cc(F)c3)cc2Cl)cnc1N (single isomer, unassigned) [Example 35]
0.001 to 0.025 µM	1 to 25 nM	CCc1cc(NC(=O)C(O)c2cc(F)cc(F)c2)ccc1-c1cnc(N)c(C(=O)NC(C)C)c1 (single isomer, unassigned) [Example 38, 2-amino-5-(4-(2-(3,5-difluorophenyl)-2-hydroxyacetamido)-2-ethylphenyl)-N-isopropylnicotinamide]
0.101 to 0.25 µM	101 to 250 nM	CCc1cc(NC(=O)C(O)c2cc(F)cc(F)c2)ccc1-c1cnc(N)c(C(=O)NC(C)C)c1 (single isomer, unassigned) [Example 39, 2-amino-5-(4-(2-(3,5-difluorophenyl)-2-hydroxyacetamido)-2-ethylpehnyl)-N-isopropylnicotinamide]
0.026 to 0.05 µM	1 to 25 nM	Cc1cc(NC(=O)C(O)c2cc(F)cc(F)c2)ccc1-c1cnc(N)c(C(=O)OC(C)C)c1 (single isomer, unassigned) [Example 42, isopropyl 2-amino-5-(4-(2-(3,5-difluorophenyl)-2-hydroxyacetamido)-2-methylphenyl) nicotinate]
0.251 to 0.5 µM	51 to 100 nM	Cc1cc(NC(=O)C(O)c2cc(F)cc(F)c2)ccc1-c1cnc(N)c(C(=O)OC(C)C)c1 (single isomer, unassigned) [Example 43, isopropyl 2-amino-5-(4-(2-(3,5-difluorophenyl)-2-hydroxyacetamido)-2-methylphenyl) nicotinate]
0.001 to 0.025 µM	1 to 25 nM	CCc1cccc(C(O)C(=O)Nc2ccc(-c3cnc(N)c(C(=O)NC(C)C)c3)c(C)c2)c1 (single isomer, unassigned) [Example 72, 2-amino-5-(4-(2-(3-ethylphenyl)-2-hydroxyacetamido)-2-methylphenyl)-N-isopropylnicotinamide]
0.251 to 0.5 µM	101 to 250 nM	CCc1cccc(C(O)C(=O)Nc2ccc(-c3cnc(N)c(C(=O)NC(C)C)c3)c(C)c2)c1 (single isomer, unassigned) [Example 73, 2-amino-5-(4-(2-(3-ethylphenyl)-2-hydroxyacetamido)-2-methylphenyl)-N-isopropylnicotinamide]
0.001 to 0.025 µM	1 to 25 nM	CCc1cc(NC(=O)C(O)c2cccc(Cl)c2)ccc1-c1cnc(N)c(C(=O)NC(C)C)c1 (single isomer, unassigned) [Example 108, 2-amino-5-(4-(2-(3-chlorophenyl)-2-hydroxyacetamido)-2-ethylphenyl)-N-isopropylnicotinamide]
0.101 to 0.25 µM	51 to 100 nM	CCc1cc(NC(=O)C(O)c2cccc(Cl)c2)ccc1-c1cnc(N)c(C(=O)NC(C)C)c1 (single isomer, unassigned) [Example 109, 2-amino-5-(4-(2-(3-chlorophenyl)-2-hydroxyacetamido)-2-ethylphenyl)-N-isopropylnicotinamide]
0.001 to 0.025 µM	1 to 25 nM	CCc1cc(NC(=O)C(O)c2cc(F)cc(F)c2)ccc1-c1cnc(N)c(C(=O)NCC(F)(F)F)n1 (single isomer, unassigned) [Example 154, 3-amino-6-(4-(2-(3,5-difluorophenyl)-2-hydroxyacetamido)-2-ethylphenyl)-N-(2,2,2-trifluoroethyl) pyrazine-2-carboxamide]
0.101 to 0.25 µM	101 to 250 nM	CCc1cc(NC(=O)C(O)c2cc(F)cc(F)c2)ccc1-c1cnc(N)c(C(=O)NCC(F)(F)F)n1 (single isomer, unassigned) [Example 155, 3-amino-6-(4-(2-(3,5-difluorophenyl)-2-hydroxyacetamido)-2-ethylphenyl)-N-(2,2,2-trifluoroethyl) pyrazine-2-carboxamide]
